Test results as given in ChEMBL document CHEMBL1138805, “NO-sartans: a new class of pharmacodynamic hybrids as cardiovascular drugs” (J Med Chem, 2004).

Legend:
Format in all cases: functional
[1] = Vasorelaxing activity was determined
[2] = target: T1, Type-1 angiotensin II receptor (Homo sapiens) (UniProt P30556); test: Antagonistic activity against Angiotensin II receptor type 1
T1 sequence (whole entry): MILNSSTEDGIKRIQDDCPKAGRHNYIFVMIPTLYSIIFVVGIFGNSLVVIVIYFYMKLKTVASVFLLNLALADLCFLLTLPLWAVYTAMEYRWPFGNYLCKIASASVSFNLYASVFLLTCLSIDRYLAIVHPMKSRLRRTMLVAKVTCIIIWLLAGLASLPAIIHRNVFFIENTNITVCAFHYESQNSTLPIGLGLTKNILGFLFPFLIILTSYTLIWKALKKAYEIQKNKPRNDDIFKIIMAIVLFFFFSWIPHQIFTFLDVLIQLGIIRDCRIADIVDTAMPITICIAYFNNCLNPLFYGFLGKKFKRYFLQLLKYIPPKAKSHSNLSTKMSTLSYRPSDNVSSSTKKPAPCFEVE

[3] = Nitric oxide releasing effect was determined
[4] = target: T1, Type-1 angiotensin II receptor (Homo sapiens); test: Antagonistic activity against Angiotensin II receptor type 1 in presence of eserin
[5] = Vasorelaxing activity in the presence of eserin was determined

SMILES	Efficacy [1] [%]	Kb [2] [nM]	Efficacy [3]	Kb [4] [nM]	Efficacy [5]
CCCCc1nc(Cl)c(COC(=O)c2cccc(CO[N+](=O)[O-])c2)n1Cc1ccc(-c2ccccc2-c2nn[nH]n2)cc1	92	6	34	40	91
O=C(O)c1cccc(CO[N+](=O)[O-])c1	67				71
CCCCc1nc(Cl)c(COC(=O)CCCCO[N+](=O)[O-])n1Cc1ccc(-c2ccccc2-c2nn[nH]n2)cc1	95	16	23		
